The target in this assay is T. brucei PKA (Trypanosoma brucei brucei, UniProt Q9GU80). The assay can be described thus: In vivo PKA reporter assay (VASP Ser-157 phosphorylation, western blot).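 For % VASP phosphorylation: Phosphorylated VASP as percent of total VASP band signal.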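 For all read-outs here: T. brucei cells expressing human VASP as heterologous PKA substrate, compound exposure at 37 °C, western blot of phospho (50 kDa) versus unphosphorylated (46 kDa) VASP band.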 The class given is cell-based. Conditions: for effect on in vivo PKA activity (VASP phosphorylation), in words: wild type background; for % VASP phosphorylation: independent replicates.
Sequence of T. brucei PKA (Q38DS1 entry or part of it): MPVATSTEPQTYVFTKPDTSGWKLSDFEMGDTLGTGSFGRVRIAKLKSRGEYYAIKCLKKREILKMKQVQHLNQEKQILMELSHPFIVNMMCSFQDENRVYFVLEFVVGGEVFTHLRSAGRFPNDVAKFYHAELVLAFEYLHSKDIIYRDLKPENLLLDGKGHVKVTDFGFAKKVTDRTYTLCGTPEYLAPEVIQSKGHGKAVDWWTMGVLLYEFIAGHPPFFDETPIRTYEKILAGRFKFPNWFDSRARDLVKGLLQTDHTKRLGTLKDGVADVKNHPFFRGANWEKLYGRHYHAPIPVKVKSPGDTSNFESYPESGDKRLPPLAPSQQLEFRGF
Sequence of T. brucei PKA (Q38DR5 entry or part of it, further chain): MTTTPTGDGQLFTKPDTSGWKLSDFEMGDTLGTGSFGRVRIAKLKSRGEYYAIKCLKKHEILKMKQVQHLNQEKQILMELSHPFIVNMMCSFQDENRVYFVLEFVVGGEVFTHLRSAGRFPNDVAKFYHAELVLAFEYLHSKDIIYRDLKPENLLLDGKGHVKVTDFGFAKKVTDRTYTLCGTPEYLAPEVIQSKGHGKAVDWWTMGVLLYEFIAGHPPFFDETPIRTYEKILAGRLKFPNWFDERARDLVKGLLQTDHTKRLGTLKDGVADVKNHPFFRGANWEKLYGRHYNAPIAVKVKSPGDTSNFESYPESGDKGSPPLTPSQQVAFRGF
Sequence of T. brucei PKA (Q9GU80 entry or part of it): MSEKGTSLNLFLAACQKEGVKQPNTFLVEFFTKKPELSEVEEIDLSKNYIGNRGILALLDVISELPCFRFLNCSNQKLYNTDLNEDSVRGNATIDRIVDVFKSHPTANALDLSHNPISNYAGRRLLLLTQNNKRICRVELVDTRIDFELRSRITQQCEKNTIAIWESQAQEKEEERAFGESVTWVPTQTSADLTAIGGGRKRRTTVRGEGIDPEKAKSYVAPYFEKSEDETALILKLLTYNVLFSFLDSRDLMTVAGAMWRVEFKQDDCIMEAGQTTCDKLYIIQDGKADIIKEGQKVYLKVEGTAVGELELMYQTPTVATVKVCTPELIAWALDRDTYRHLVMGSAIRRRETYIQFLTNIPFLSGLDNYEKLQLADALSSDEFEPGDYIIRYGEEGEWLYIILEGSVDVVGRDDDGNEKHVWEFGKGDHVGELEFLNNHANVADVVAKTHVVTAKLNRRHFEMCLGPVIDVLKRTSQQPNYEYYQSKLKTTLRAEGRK

The record followed here is PMC6440977, “Nucleoside analogue activators of cyclic AMP-independent protein kinase A of Trypanosoma” (Nature Communications, 2019).

Values joined by “and” are separate entries in the source; they are usually repeats but may differ in a detail not shown here. Equal entries are not always repeated.

For `Nc1nc(Cl)nc2c1ncn2[C@@H]1O[C@H](CO)[C@@H](O)[C@H]1O` [2-Cl-Ado, 2-Chloroadenosine], the “effect on in vivo PKA activity (VASP phosphorylation), in words” value (“effect on in vivo PKA activity” below) is on record as “no effect”.

With `Nc1ncnc2c1cc(Br)n2[C@@H]1O[C@H](CO)[C@@H](O)[C@H]1O` [6-Br-Tu, 8-Bromo-7-deazaadenosine], the “effect on in vivo PKA activity” value is on record as “no effect”.

Consider `OC[C@H]1O[C@@H](n2cnc3c(Cl)ncnc32)[C@H](O)[C@@H]1O` [6-Cl-PuR, 6-Chloropurine riboside], for which the “effect on in vivo PKA activity” value is recorded as “no effect”. In addition, the “% VASP phosphorylation” value (2 µM) is 27.0392% and 26.6154% and 24.2815%. Moreover, the “% VASP phosphorylation” value (5 µM) was 24.7092% and 27.9877% and 23.4187%. Moreover, the “% VASP phosphorylation” value (10 µM) is 20.6897% and 25.2945% and 23.0524%. For the setting “20 µM”, the “% VASP phosphorylation” value was 24.6262% and 26.5882% and 23.4334%. In addition, the “% VASP phosphorylation” value (50 µM) was 28.7467% and 26.8897% and 25.4464%. The “% VASP phosphorylation” value (100 µM) is 33.239% and 35.1611% and 28.0731%.

In the case of `Nc1ncnc2c1nc(Br)n2[C@@H]1O[C@H](CO)[C@@H](O)[C@H]1O` [8-Br-Ado, 8-Bromoadenosine], the “effect on in vivo PKA activity” value is “no effect”.

With `CO[C@@H]1[C@H](O)[C@@H](CO)O[C@H]1n1c(Sc2ccc(Cl)cc2)nc2c(N)ncnc21` [8-pCPT-2'O-me-Ado], the “% VASP phosphorylation” value was 17.7877% and 18.0048% and 22.1674% (10 µM); 16.9524% and 18.6949% and 22.9783% (20 µM); 17.4825% and 18.9639% and 23.6777% (50 µM); 18.5972% and 20.7972% and 25.3942% (100 µM); 20.7922% and 23.6499% and 24.007% (250 µM).

As to `CO[C@@H]1[C@@H]2OP(=O)(O)OC[C@H]2O[C@H]1n1c(Sc2ccc(Cl)cc2)nc2c(N)ncnc21` [8-pCPT-2'O-me-cAMP], the “% VASP phosphorylation” value was 41.2113% and 39.9561% and 36.9456% (10 µM); 34.7976% and 43.6436% and 30.9578% (20 µM); 31.7213% and 39.4904% and 29.8481% (50 µM); 33.7045% and 41.4368% and 33.2969% (100 µM); 30.1497% and 39.413% and 35.4525% (250 µM).

In the case of `COC1C2OP(=O)(O)OCC2OC1n1c(Sc2ccc(Cl)cc2)nc2c(=O)[nH]c(N)nc21` (stereo not drawn) [8-pCPT-2'O-me-cGMP], the “% VASP phosphorylation” value is, setting by setting: (10 µM) 38.4582% and 35.5972% and 37.6064%; (20 µM) 40.2883% and 38.6651% and 38.3333%; (50 µM) 40.3308% and 52.7132% and 36.328%; (100 µM) 39.4763% and 48.2408% and 35.1104%; (250 µM) 43.9368% and 67.0264% and 36.1457%.

Consider `CO[C@@H]1[C@H](O)[C@@H](CO)O[C@H]1n1c(Sc2ccc(Cl)cc2)nc2c(N)ncnc21` [8-pCPT-2-′O-Me-Ado, 8-(4-Chlorophenylthio)-2'-O-methyladenosine], for which the “effect on in vivo PKA activity” value is reported as “slight inhibitory”.

With `CO[C@@H]1[C@@H]2OP(=O)(O)OC[C@H]2O[C@H]1n1c(Sc2ccc(Cl)cc2)nc2c(N)ncnc21` [8-pCPT-2′-O-Me-cAMP, 8-(4-Chlorophenylthio)-2'-O-methyladenosine-3',5'-cyclic monophosphate], the “effect on in vivo PKA activity” value was “No PKA activation”.

For the molecule `Nc1ncnc2nc(Sc3ccc(Cl)cc3)[nH]c12` [8-pCPT-Ade, 8-(4-Chlorophenylthio)adenine], the “effect on in vivo PKA activity” value is listed as “no effect”.

Regarding `Nc1ncnc2c1nc(Sc1ccc(Cl)cc1)n2[C@@H]1O[C@H](CO)[C@@H](O)[C@H]1O` [8-pCPT-Ado, 8-(4-Chlorophenylthio)adenosine], the “effect on in vivo PKA activity” value is on record as “slight inhibitory”.

In the case of `Nc1nc2c(nc(Sc3ccc(Cl)cc3)n2[C@@H]2O[C@H](CO)[C@@H](O)[C@H]2O)c(=O)[nH]1` [8-pCPT-Guo, 8-(4-Chlorophenylthio)guanosine], the “effect on in vivo PKA activity” value was “no effect”.
